Laboratory results as given in US5744621A, “Irreversible HIV protease inhibitors, intermediates, compositions and processes for the preparation thereof” (Lucky Limited., priority 1992, dated 1998).
Like-named read-outs stand apart in the source and are kept apart here.

Tests used:
HIV-1 = test: Anti-viral activity: syncytium formation (Sup T1) or reverse transcriptase assay (H9); assay type: cell-based; conditions: Human immunodeficiency virus 1, SUP-T1
Experimental: The anti-viral activity of the compounds of the present invention was determined by measuring the concentration of the compounds that inhibits the proliferation of HIV by 50%(IC50) through a survey for syncytium formation or reverse transcriptase assay.
1×10^5 cells of each of H9(ATCC HTB 176) and Sup T1 cell lines were added to the wells of a 24-well microtiter plate and various concentrations so the compounds of the present invention were added thereto. 200 TCID50 (200-fold of 50% tissue culture infection dose) of HIV-1 inoculum and rpmi-1640 medium(Sigma Chemical Co., U.S.A) were added successively to the wells and the plate was incubated at 37° C. In case of Sup T1, the number of syncytium formed was investigated after 3 to 9 days. IC50 of each compound was determined by measuring the concentration of inhibitor that can reduce the number of syncytium by 50% compared with those formed in the same condition without the inhibitor.
In case of H9, three-quarters(3/4) of the culture medium in volume was refreshed every 3 days; and 6 ml of the culture fluid was centrifuged at 1000 rpm for 10 minutes. To 5 ml of the resulting supernatant were added 2.5 ml of 30% polyethyleneglycol(PEG, M.W. 6000-8000) and 0.4M NaCl. The resulting solution was allowed to stand at 0° C. overnight to precipitate virus particles. The solution was centrifuged at 2000 rpm for 45 minutes, the supernatant was discarded therefrom and the precipitate was diluted with 20 μl of a reverse transcriptase suspension buffer(50 mM tris-HCl, pH 7.5, 1 mM dithiothreitol, 20% glycerol, 0.25M KCl and 0.25% Triton X-100). The resulting suspension was stored in an Effendorf tube at -70° C. until used. A procedure of freezing said virus suspension for 2 minutes in dry ice and thawing same at 37° C. for 2 minutes was repeated three times and the resulting suspension was centrifuged at 4° C. The resulting supernatant was used in carrying out the reverse transcriptase assay.
10 μl of the said viral suspension was added to a solution of: 10 μl of buffer solution(250 mM tris-HCl, pH 7.5, 37.5 mM MgCl2, 0.25% triton X-100), 1.2 μl of 200 mM dithiothreitol, 5 μl of 10 μM oligo(dT)-poly(A)(Boeringer Manheim, 12-18 oligomer), 1 μl(1 μCi) of ^3 H-TTP(Thymidinetri-phosphate) and 23.6 μl of water; and the resulting mixture was placed at 37° C. After 1 hour, the mixture was poured onto a WHATMAN DEB1 filter and the filter was washed three times with 5 ml of 2×SSC buffer solution(17.53 g of sodium chloride, 8.82 g of sodium citrate, pH 7.0, 1 liter of water) for about 10 minutes each time and twice with 95% ethanol for 10 seconds. The filter was put onto aluminium foil and dried with an infra-red lamp. The amount of radioactivity was counted using a liquid scintillation counter. IC50 of each compound was determined by measuring the concentration of inhibitor that can reduce the activity of reverse transcriptase by 50%.

HIV-1 protease = target: T1, HIV-1 protease (Human immunodeficiency virus type 1 group M subtype B, UniProt P04585); test: Assay for inhibitory effect on HIV protease (residual enzyme activity, HPLC of substrate cleavage); assay type: biochemical
T1 construct: 2.6 nM of HIV-1 protease
Experimental: The inhibitory effect on HIV protease of the compounds of the present invention was determined by the following method.
To a buffer solution comprising 50 mM sodium acetate, pH 5.5, 1 mM dithiothreitol(DTT), 1 mM ethylenediaminetetraacetate (EDTA), 0.75M ammonium sulfate, 0.2M sodium chloride and 0.1% NP40(NONIDET P-40; Sigma Chemical Co., U.S.A.), were added various concentrations of a compound selected from Compound Nos. 1 to 92 to prepare a preincubation solution. Inhibition reaction was started with the addition of 2.6 nM of HIV-1 protease to the preincubation solution. Each 10 μl of the reaction solution was taken at a given time interval and added to 80 μl of assay solution containing 100 μM of reaction substrate in the same buffer solution as above to assay for the residual enzyme activity. In this context, an oligopeptide(KM =20 μM) consisting of 11 amino acids, i.e., Ser-Ile-Ala-Glu-(p-NO2)-Phe-Leu-Val-Arg-Ala-Lys-His, was used as a reaction substrate, which oligopeptide was to be cleaved in two by the breakage of amide bond between (P--NO2)-Phe and Leu upon the attack of HIV protease. The reaction rate was determined by subjecting the substrate before the reaction and the product after the reaction to HPLC separation and then measuring the relative amount of the product, using the strong absorbance of (p--NO2)-Phe at 280 nm. The amount of reduction in enzyme activity according to the elapsed time were measured and the natural logarithmic values(ln) of the measured amounts were plotted against time to obtain a linear graph and kobs was calculated from the slope of the linear graph.
The inhibition constant was calculated according to the following equation: [formula] wherein: kobs is a rate constant indicating the rate of reduction in enzyme activity according to the elapsed time under the presence of a given concentration of inhibitor,
kina is a rate constant indicating the rate of chemical reaction forming covalent bond between an enzyme and an inhibitor in Michaelis-Menten complex,
KI is an inhibition constant indicating the dissociation rate of Michaelis-Menten complex into an enzyme and an inhibitor, and
[I] means the inhibitor concentration.
The above equation is applicable to an experiment carried out under the condition in which the concentration of inhibitor is far higher than that of enzyme(Steady State Kinetic). […] The inhibition constants KI and kina and second order rate constant kina /KI were obtained by inputting the value of [E]/([E]+[EI]+[EI']) into KINSIM/FITSIM program. FIG. 1 exemplifies a result of the experiment determining the binding ratio of enzymes and inhibitors, which result was obtained by reacting the enzyme and the inhibitor in various concentration ratios for a sufficient time period(at least for 30 minutes), and then plotting the relative activity of the remaining enzyme against [conc. of inhibitor]/[conc. of enzyme].

[1] = Cytotoxicity in H9 or Sup T1 cells (trypan blue dye exclusion); assay type: cell-based; conditions: human; concentration that causes death of cells by 50%; H9 or Sup T1 cells, 37° C; read-out: CT50 (the source's name)
Experimental: To determine the cytotoxicity of the compounds of the present invention, 0.1 μM to 100 μM of the novel compounds were added to H9 cell or Sup T1 cell and the mixture was cultured on a rpmi-1640 medium at 37° C. The medium was refreshed every 3 days and the extent of cell proliferation was observed using Hemacytometer according to the trypan blue dye exclusion technique which is well known in the art. CT50 (i.e., concentration that causes death of cells by 50%) was determined. For reference, AZT(Burrows-Wellcome), A-75925 (Abbott, C2 symmetric compound) and Ro-31-8959(F. Hofmann-La Roche) were used as control compounds.

[2] = HIV-1 protease 2.6 nM, pH 5.5, inhibition constant
[3] = HIV-1 protease 2.6 nM, pH 5.5, rate constant of covalent bond formation, read-out: kina (converted)
[4] = second order rate constant, HIV-1 protease, pH 5.5, read-out: kina /KI (converted)

In the case of `CC(C)[C@H](NC(=O)N(C)Cc1ccccn1)C(=O)NC[C@@H]1O[C@@H]1[C@H](Cc1ccccc1)NC(=O)[C@@H](NC(=O)N(C)Cc1ccccn1)C(C)C` [compound 80], the IC50 (HIV-1) is reported as 0.5 µM, the Ki (HIV-1 protease; [2]) is reported as 0.15 µM and the kinact (HIV-1 protease; [3]) is reported as 0.00533 s⁻¹. The kinact/KI (HIV-1 protease; [4]) was 35000 M⁻¹ s⁻¹ and the CC50 [1] was > 100 µM.
In the case of `CC[C@H](C)[C@H](NC(=O)C[C@@H]1O[C@@H]1[C@H](Cc1ccccc1)NC(=O)[C@@H](NC(=O)N(C)Cc1ccccn1)C(C)C)C(=O)OC` [compound 35, N-{N-L-[[N,N-(2-pyridylmethyl)(methyl)-amino]carbonylvalinyl]amino-(4R,3S)-epoxy-6-phenyl-hexanoyl}-L-isoleucine methyl ester], the IC50 (HIV-1) is reported as 1 µM, the Ki (HIV-1 protease; [2]) is reported as > 10 µM and the CC50 [1] is reported as > 100 µM.
Compound `CC[C@H](C)[C@H](NC(=O)C[C@@H]1O[C@@H]1[C@H](Cc1ccccc1)NC(=O)[C@H](CC(N)=O)NC(=O)c1ccc2ccccc2n1)C(=O)NC` [compound 25, N-{5-L-[[N-(2-quinolinecarbonyl)-L-asparaginyl]amino]-(4R,3S)-epoxy-6-phenylhexanoyl}-L-isoleucinyl-methylamide] has an IC50 (HIV-1) of 0.5 µM, a Ki (HIV-1 protease; [2]) of 0.02 µM and a kinact (HIV-1 protease; [3]) of 0.003 s⁻¹. For the same compound, the kinact/KI (HIV-1 protease; [4]) was 150000 M⁻¹ s⁻¹ and the CC50 [1] was > 100 µM.
Work on `CC(C)[C@H](NC(=O)C[C@@H]1O[C@@H]1[C@H](Cc1ccccc1)NC(=O)[C@H](CC(N)=O)NC(=O)c1ccc2ccccc2n1)C(=O)NCc1ccccn1` [compound 19] yielded an IC50 (HIV-1) of 5 µM, a Ki (HIV-1 protease; [2]) of 0.081 µM and a kinact (HIV-1 protease; [3]) of 0.00367 s⁻¹. The kinact/KI (HIV-1 protease; [4]) was 45000 M⁻¹ s⁻¹ and the CC50 [1] was > 100 µM.
With `CC(C)[C@@H](CCc1ccccc1)NC(=O)C[C@@H]1O[C@@H]1[C@H](Cc1ccccc1)NC(=O)[C@H](CC(N)=O)NC(=O)c1ccc2ccccc2n1` [compound 49] the IC50 (HIV-1) was > 5 µM, the Ki (HIV-1 protease; [2]) was 0.8 µM and the kinact (HIV-1 protease; [3]) was 0.03 s⁻¹. The kinact/KI (HIV-1 protease; [4]) was 38300 M⁻¹ s⁻¹ and the CC50 [1] was > 100 µM.
In the case of `CC[C@H](C)[C@H](NC(=O)C[C@@H]1O[C@@H]1[C@H](Cc1ccccc1)NC(=O)[C@H](CC(N)=O)NC(=O)c1ccc2ccccc2n1)C(=O)NOC` [compound 28, N-{5-L-[[N-(2-quinolinecarbonyl)-L-asparaginyl]amino]-(4R,3S)-epoxy-6-phenylhexanoyl}-L-isoleucinyl-(N-methoxy)-amine], the IC50 (HIV-1) is reported as 0.6 µM, the Ki (HIV-1 protease; [2]) is reported as 0.015 µM and the kinact (HIV-1 protease; [3]) is reported as 0.00333 s⁻¹. The kinact/KI (HIV-1 protease; [4]) was 217000 M⁻¹ s⁻¹ and the CC50 [1] was > 100 µM.
`COC(=O)C(CCC(N)=O)NC(=O)C[C@@H]1O[C@@H]1[C@H](Cc1ccccc1)NC(=O)[C@H](CC(N)=O)NC(=O)c1ccc2ccccc2n1` (some centres unmarked) [compound 12] showed an IC50 (HIV-1) of 7 µM, a Ki (HIV-1 protease; [2]) of 0.37 µM and a kinact (HIV-1 protease; [3]) of 0.005 s⁻¹. For the same compound, the kinact/KI (HIV-1 protease; [4]) was 13500 M⁻¹ s⁻¹ and the CC50 [1] was > 100 µM.
Compound `CC(C)C(NC(=O)C[C@@H]1O[C@@H]1[C@H](Cc1ccccc1)NC(=O)[C@H](CC(N)=O)NC(=O)c1ccc2ccccc2n1)C(C)C` [compound 46] has an IC50 (HIV-1) of 0.04 µM, a Ki (HIV-1 protease; [2]) of 0.0009 µM and a kinact (HIV-1 protease; [3]) of 0.00267 s⁻¹. The kinact/KI (HIV-1 protease; [4]) was 3000 M⁻¹ s⁻¹ and the CC50 [1] was > 100 µM.
With `NC(=O)C[C@H](NC(=O)c1cnc2ccccc2n1)C(=O)N[C@@H](Cc1ccccc1)[C@H]1O[C@H]1CCc1ccccc1` [compound 63, 2-L-(N-quinoxaline-2-ylcarbonyl-L-asparaginyl)amino-(3R,4S)-epoxy-1,6-diphenylhexane] the IC50 (HIV-1) was 1 to 2 µM, the Ki (HIV-1 protease; [2]) was 0.25 µM and the kinact (HIV-1 protease; [3]) was 0.00483 s⁻¹. For the same compound, the kinact/KI (HIV-1 protease; [4]) was 20000 M⁻¹ s⁻¹ and the CC50 [1] was > 100 µM.
With `CC[C@H](C)[C@H](NC(=O)C[C@@H]1O[C@@H]1[C@H](Cc1ccccc1)NC(=O)[C@H](CC(N)=O)NC(=O)c1ccc2ccccc2n1)C(N)=O` [compound 27, N-{5-L-[[N-(2-quinolinecarbonyl)-L-asparaginyl]amino]-(4R,3S)-epoxy-6-phenylhexanoyl}-L-isoleucinyl amide] the IC50 (HIV-1) was 1 µM, the Ki (HIV-1 protease; [2]) was 0.003 µM and the kinact (HIV-1 protease; [3]) was 0.00333 s⁻¹. For the same compound, the kinact/KI (HIV-1 protease; [4]) was 1.12e+06 M⁻¹ s⁻¹ and the CC50 [1] was ~10 µM.
In the case of `CC(C)[C@H](NC(=O)OCc1ccccc1)C(=O)NC[C@@H]1O[C@@H]1[C@H](Cc1ccccc1)NC(=O)[C@@H](NC(=O)OCc1ccccc1)C(C)C` [compound 71, 4S-1,4-bis[N-(N'-benzyloxycarbonyl-L-valinyl)amino]-5-phenyl-(2S,3R)-(Z)-epoxypentane], the IC50 (HIV-1) is reported as 0.08 µM, the Ki (HIV-1 protease) is reported as 0.00018 µM and the kinact (HIV-1 protease; pH 5.5, read-out: kina) is reported as 0.00233 s⁻¹. For the same compound, the kinact/KI (HIV-1 protease; pH 5.5, read-out: kina /KI) was 1.28e+06 M⁻¹ s⁻¹ and the CC50 [1] was > 100 µM.
For `NC(=O)C[C@H](NC(=O)COc1cccc2ccccc12)C(=O)N[C@@H](Cc1ccccc1)[C@H]1O[C@H]1CCc1ccccc1` [compound 61, 2-L-(N-1-naphthoxyacetyl-L-asparaginyl)amino-(3R,4S)-epoxy-1,6-diphenylhexane], the IC50 (HIV-1) was 1 to 2 µM, the Ki (HIV-1 protease; [2]) was 0.25 µM and the kinact (HIV-1 protease; [3]) was 0.0005 s⁻¹. For the same compound, the kinact/KI (HIV-1 protease; [4]) was 2000 M⁻¹ s⁻¹ and the CC50 [1] was > 100 µM.
In the case of `CC(C)[C@@H](CCCc1ccccc1)NC(=O)C[C@@H]1O[C@@H]1[C@H](Cc1ccccc1)NC(=O)[C@H](CC(N)=O)NC(=O)c1ccc2ccccc2n1` [compound 50], the IC50 (HIV-1) is reported as > 5 µM, the Ki (HIV-1 protease; [2]) is reported as 0.95 µM and the kinact (HIV-1 protease; [3]) is reported as 0.025 s⁻¹. The kinact/KI (HIV-1 protease; [4]) was 26700 M⁻¹ s⁻¹ and the CC50 [1] was > 100 µM.
Compound `NC(=O)C[C@H](NC(=O)c1ccc2ccccc2n1)C(=O)N[C@@H](Cc1ccccc1)[C@H]1O[C@H]1CCc1ccccc1` [compound 62, 2-L-(N-2-quinolinecarbonyl-L-asparaginyl)amino-(3R,4S)-epoxy-1,6-diphenylhexane] has an IC50 (HIV-1) of 0.2 to 0.7 µM, a Ki (HIV-1 protease; [2]) of 0.13 µM and a kinact (HIV-1 protease; [3]) of 0.00183 s⁻¹. The kinact/KI (HIV-1 protease; [4]) was 14200 M⁻¹ s⁻¹ and the CC50 [1] was > 100 µM.
